Results published in patent US10730868B2, “Bicyclic heteroaryl substituted compounds” (BRISTOL-MYERS SQUIBB COMPANY, priority 2016, dated 2020).
Like-named read-outs stand apart in the source and are kept apart here.

Biological target: PAR4 (Homo sapiens (Human), UniProt Q96RI0)
Test: PAR4 FLIPR assay (antagonism of agonist-peptide-induced calcium mobilization)
Assay type: cell-based
Conditions: PAR4-expressing HEK293 cells, read-out: PAR4 FLTPR assay (IC50)
Source text: The Fluorometric Imaging Plate Reader (FLIPR) assay is an exemplary in vitro assay for measuring the activity of the PAR4 antagonists of the present invention. In this assay, intracellular calcium mobilization is induced in PAR4 expressing cells by a PAR4 agonist and calcium mobilization is monitored.
HEK293 cells stably expressing PAR4 were generated by a standard method of transfection of human PAR4 (F2R23) cDNA expression vector and selected based on PAR4 protein expression or mRNA expression. […] These cells also express endogenous PAR1 and can elicit calcium signal upon stimulation with PAR1 agonist peptide. Therefore, the same cells were also used to determine selectivity against PAR1 and agonist activity for both receptors. Cells from HEK293 PAR4 Clone 1.2A (BMS Arctic ID 383940) were propagated and used for calcium mobilization studies.
FLIPR-based calcium mobilization assay in HEK293 cells was used to measure PAR4 antagonism agonism, and selectivity against PAR1. The activity of the PAR4 antagonists of the present invention were tested in PAR4 expressing cells by monitoring H-Ala-Phe(4-F)-[…]NH2-induced intracellular calcium mobilization. Counter screens for agonist activity and PAR1 antagonist activity were also performed. Briefly, PAR/PAR4-expressing HEK293 cells were grown in DMEM (Life Technology, Grand Island, N.Y.) containing 10% heat-inactivated FBS, 1% Penicillin-Streptomycin, 10 μg/mL blasticidin, and 100 μg/mL Zeocin at 37° C. with 5% CO2. Cells were plated overnight prior to the experiment in a black 384-well Purecoat Amine clear bottom plate (Becton Dickinson Biosciences, San Jose, Calif.) at 10,000 cells/well in 30 μL growth medium and incubated in a humidified chamber at 37° C. with 5% CO2 overnight. Prior to compound addition, the cell medium was replaced with 40 μL of 1× calcium and magnesium-containing Hank's Balanced Saline Solution (HBSS) (with 20 mM HEPES) and 1:1000 diluted fluorescent calcium indicator (Codex Biosolutions, Gaithersburg, Md.). After a 30 minute incubation period at 37° C. and a further 30 minute incubation and equilibration period at room temperature, 20 μL test compound (diluted in 1×HBSS buffer) was added at various concentrations at 0.17% dimethyl sulfoxide (DMSO) final concentration. Changes in fluorescence intensity were measured using a Functional Drug Screening System (FDSS, Hamamatsu, Japan) to determine agonist activities. The cells were then incubated for 30 minutes at room temperature followed by addition of 20 μL of agonist peptide for antagonist activity measurement. […] Compound potency was derived from 11-point concentration-response curves.

[1] = H-Ala-Phe(4-F)-Pro-Gly-Trp-Leu-Val-Lys-Asn-Gly-NH2-induced intracellular calcium mobilization
[2] = H-Ala-Phe(4-F)-[…]NH2-induced intracellular calcium mobilization

PAR4, sequence (Q96RI0 18-385): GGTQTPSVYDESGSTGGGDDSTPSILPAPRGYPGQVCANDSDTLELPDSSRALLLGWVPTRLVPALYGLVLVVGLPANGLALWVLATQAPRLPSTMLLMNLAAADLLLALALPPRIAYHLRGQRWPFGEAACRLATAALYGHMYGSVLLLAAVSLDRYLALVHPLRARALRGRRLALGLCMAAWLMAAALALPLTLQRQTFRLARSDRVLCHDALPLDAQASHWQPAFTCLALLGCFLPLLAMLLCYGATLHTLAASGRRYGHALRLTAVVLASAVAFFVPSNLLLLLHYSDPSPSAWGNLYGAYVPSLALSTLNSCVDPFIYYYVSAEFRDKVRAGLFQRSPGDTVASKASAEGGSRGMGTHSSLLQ

Compound | IC50 [1] [nM] | IC50 [2] [nM]
COc1cnc2c(-c3nc4cc(F)c(O[C@@H]5CC[C@@H]5OC(=O)Nc5cnc(OC[C@@H](C)O)nc5)cc4s3)cc(C)cc2n1 (stereo in doubt) [Example 62, cis-2-((5-fluoro-2-(2-methoxy-7-methylquinoxalin-5-yl)benzo[d]thiazol-6-yl)oxy)cyclobutyl (2-((R)-2-hydroxypropoxy)pyrimidin-5-yl)carbamate (Homochiral)] | 6.9 | 
COc1cnc2c(-c3nc4cc(F)c(O[C@H]5CC[C@H]5OC(=O)Nc5cnc(OCCO)nc5)cc4s3)cc(C)cc2n1 [Example 64] | 1.9 | 
COc1ccc(NC(=O)O[C@@H]2CCCC[C@H]2Oc2cc3sc(-c4cc(C)cc5nc(OC)cnc45)nc3cc2F)cn1 (racemic) [Example 53, rac-trans-2-((5-fluoro-2-(2-methoxy-7-methylquinoxalin-5-yl)benzo[d]thiazol-6-yl)oxy)cyclohexyl (6-methoxypyridin-3-yl)carbamate] |  | 94
COc1cnc2c(-c3nc4cc(F)c(O[C@H]5CCC[C@H]5OC(=O)Nc5cnc(C)nc5)cc4s3)cc(C)cc2n1 (racemic) [Example 35] |  | 2.5
COc1cnc2c(-c3nc4cc(F)c(O[C@H]5CCC[C@H]5OC(N)=O)cc4s3)cc(C)cc2n1 [Example 39] | 400 | 
COc1cnc2c(-c3nc4cc(F)c(O[C@@H]5CCC[C@H]5OC)cc4s3)cc(C)cc2n1 (racemic) [Example 42, rac-5-fluoro-2-(2-methoxy-7-methylquinoxalin-5-yl)-6-((trans-2-methoxycyclopentyl)oxy)benzo[d]thiazole] |  | 320
COc1cnc2c(-c3nc4cc(F)c(O[C@H]5CC[C@H]5O)cc4s3)cc(C)cc2n1 [Example 60, cis-2-((5-fluoro-2-(2-methoxy-7-methylquinoxalin-5-yl)benzo[d]thiazol-6-yl)oxy)cyclobutanol (Homochiral)] | 9.8 | 
COc1cnc2c(-c3nc4cc(F)c(OC5CC(F)(F)CC[C@@H]5OC(=O)Nc5cnc(C)nc5)cc4s3)cc(C)cc2n1 (mixture of isomers) [Example 7] |  | 0.67
COc1cnc2c(-c3nc4cc(F)c(O[C@@H]5CC(C)(C)C[C@@H]5OC(=O)Nc5cnc(C)nc5)cc4s3)cc(C)cc2n1 (single isomer, unassigned; enantiomer 2) [Example 85, (cis)-2-((5-fluoro-2-(2-methoxy-7-methylquinoxalin-5-yl)benzo[d]thiazol-6-yl)oxy)-4,4-dimethylcyclopentyl (2-methylpyrimidin-5-yl)carbamate Enantiomer 2] |  | 41
COc1ccc(NC(=O)O[C@H]2CCN(C(=O)OC(C)(C)C)C[C@H]2Oc2cc3sc(-c4cc(C)cc5nc(OC)cnc45)nc3cc2F)cn1 (racemic) [Example 92, rac-cis-tert-butyl 3-((5-fluoro-2-(2-methoxy-7-methylquinoxalin-5-yl)benzo[d]thiazol-6-yl)oxy)-4-(((6-methoxypyridin-3-yl)carbamoyl)oxy)piperidine-1-carboxylate] |  | 12
COc1cnc2c(-c3nc4cc(F)c(O[C@@H]5CC(F)(F)C[C@@H]5OC(=O)Nc5cnc(C)nc5)cc4s3)cc(Cl)cc2c1 (racemic) [Example 98, rac-cis-2-((2-(6-chloro-3-methoxyquinolin-8-yl)-5-fluorobenzo[d]thiazol-6-yl)oxy)-4,4-difluorocyclopentyl (2-methylpyrimidin-5-yl)carbamate] |  | 14
COc1cnc2c(-c3nc4cc(F)c(O[C@H]5CC[C@H]5OC(=O)Nc5cnc(C)nc5)cc4s3)cc(C)cc2n1 [Example 69] | 1.2 | 
COc1cnc2c(-c3nc4cc(F)c(O[C@@H]5CC(F)(F)CC[C@@H]5OC(=O)Nc5cnc(C)nc5)cc4s3)cc(C)cc2n1 [Example 13] | 110 | 
CCOc1cnc2c(-c3nc4cc(F)c(O[C@@H]5CC[C@@H]5OC(=O)Nc5cnc(OCCO)nc5)cc4s3)cc(Cl)cc2c1 [Example 77] | 9.2 | 
COc1cnc2c(-c3nc4cc(F)c(O[C@H]5CC[C@H]5OC(=O)Nc5cnc(CCO)nc5)cc4s3)cc(C)cc2n1 [Example 65] | 3.7 | 
COc1cnc2c(-c3nc4cc(F)c(O[C@H]5CC(F)(F)CC[C@H]5OC(=O)Nc5ccnnc5)cc4s3)cc(C)cc2n1 [Example 9] | 12 | 

Compound | IC50 [1] [nM] | IC50 [2] [nM]
COc1cnc2c(-c3nc4cc(F)c(O[C@@H]5CC(F)(F)C[C@@H]5OC(=O)Nc5cnc(C)nc5)cc4s3)cc(C)cc2n1 (stereo in doubt) [Example 99, (cis)-4,4-difluoro-2-((5-fluoro-2-(2-methoxy-7-methylquinoxalin-5-yl)benzo[d]thiazol-6-yl)oxy)cyclopentyl (2-methylpyrimidin-5-yl)carbamate (Homochiral)] | 32 | 
COc1cnc2c(-c3nc4cc(F)c(O[C@@H]5CCCC[C@@H]5OC(=O)Nc5cccnc5)cc4s3)cc(C)cc2n1 (single isomer, unassigned; enantiomer 2) [Example 59, cis-2-((5-fluoro-2-(2-methoxy-7-methylquinoxalin-5-yl)benzo[d]thiazol-6-yl)oxy)cyclohexyl pyridin-3-ylcarbamate (Enantiomer 2)] |  | 77
COc1cnc2c(-c3nc4cc(F)c(OC5CCC[C@@H]5O)cc4s3)cc(C)cc2n1 (mixture of isomers) [Example 21, rac-cis-2-((5-fluoro-2-(2-methoxy-7-methylquinoxalin-5-yl)benzo[c]thiazol-6-yl)oxy)cyclopentanol] |  | 470
COc1ccc(NC(=O)O[C@H]2CCOC[C@H]2Oc2cc3sc(-c4cc(C#N)cc5nc(OC)cnc45)nc3cc2F)cn1 (racemic) [Example 89, rac-cis-3-((2-(7-cyano-2-methoxyquinoxalin-5-yl)-5-fluorobenzo[d]thiazol-6-yl)oxy)tetrahydro-2H-pyran-4-yl (6-methoxypyridin-3-yl)carbamate] |  | 3.8
COc1cnc2c(-c3nc4cc(F)c(O[C@@H]5CCC[C@H]5O)cc4s3)cc(C)cc2n1 (racemic) [Example 41, rac-trans-2-((5-fluoro-2-(2-methoxy-7-methylquinoxalin-5-yl)benzo[d]thiazol-6-yl)oxy)cyclopentanol] |  | 180
COc1ccc(NC(=O)O[C@@H]2CCC[C@@H]2Oc2cc3sc(-c4cc(C)cc5nc(OC)cnc45)nc3cc2F)cn1 [Example 22, (1R,2S)-2-((5-fluoro-2-(2-methoxy-7-methylquinoxalin-5-yl)benzo[d]thiazol-6-yl)oxy)cyclopentyl (6-methoxy pyridin-3-yl)carbamate] |  | 2.4
COc1cnc2c(-c3nc4cc(F)c(O[C@@H]5CCC[C@H]5O)cc4s3)cc(CO)cc2n1 (racemic) [Example 43, rac-trans-2-((5-fluoro-2-(7-(hydroxymethyl)-2-methoxyquinoxalin-5-yl)benzo[d]thiazol-6-yl)oxy)cyclopentanol] |  | 22
COc1cnc2c(-c3nc4cc(F)c(O[C@@H]5CC[C@@H]5OC(=O)Nc5cnc(OCCO)nc5)cc4s3)cc(C)cc2n1 [Example 68] | 0.75 | 
COc1cnc2c(-c3nc4cc(F)c(O[C@H]5CC(F)(F)CC[C@H]5OC(=O)Nc5cnc(OCCO)nc5)cc4s3)cc(C)cc2n1 [Example 1] | 1.6 | 
COc1cnc2c(-c3nc4cc(F)c(O[C@H]5CCC[C@H]5OC(=O)Nc5cccnc5)cc4s3)cc(C)cc2n1 (racemic) [Example 38] |  | 9.4
COc1ccc(NC(=O)O[C@H]2CCOC[C@H]2Oc2cc3sc(-c4cc(C)cc5nc(OC)cnc45)nc3cc2F)cn1 (racemic) [Example 88, rac-cis-3-((5-fluoro-2-(2-methoxy-7-methylquinoxalin-5-yl)benzoldithiazol-6-yl)oxy)tetrahydro-2H-pyran-4-yl (6-methoxypyridin-3-yl)carbamate] |  | 21
COc1cnc2c(-c3nc4cc(F)c(O[C@@H]5CC[C@@H]5OC(=O)Nc5cnc(OCCO)nc5)cc4s3)cc(F)cc2c1 [Example 81] | 9.2 | 
COc1cnc2c(-c3nc4cc(F)c(O[C@H]5CCC[C@H]5OC(=O)Nc5ccc(C)nc5)cc4s3)cc(C)cc2n1 [Example 32] | 2.6 | 
COc1ccc(NC(=O)O[C@@H]2CCC[C@@H]2Oc2cc3sc(-c4cc(C)cc5nc(OC)cnc45)nc3cc2F)nc1 [Example 24] | 7.8 | 
COc1ccc(NC(=O)O[C@H]2CCCC[C@H]2Oc2cc3sc(-c4cc(C)cc5nc(OC)cnc45)nc3cc2F)cn1 (racemic) [Example 57, rac-cis-2-((5-fluoro-2-(2-methoxy-7-methylquinoxalin-5-yl)benzo[d]thiazol-6-yl)oxy) cyclohexyl (6-methoxypyridin-3-yl)carbamate] |  | 6.1
